Among the test systems are EKVX NSCLC; HCC-2998 colon; HL-60(TB) leukemia; IGROV1 ovarian; MDA-MB-231 breast; NCI/ADR-RES ovarian; OVCAR-3 ovarian; OVCAR-5 ovarian; SF-539 CNS; SK-MEL-2 melanoma.
What all share (experiment): growth of human tumour cells (NCI), 48 h

Structures are written as SMILES. Where “and” joins values, the source holds several entries; their conditions need not be identical. Equal values may be shown once.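 Cultured in 96-well plates, cells were exposed to test compound for 48 hours across five concentrations. Abbreviation: GI50, concentration required for 50% inhibition of growth. TGI marks complete inhibition of growth.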

As to `c1ccc([P+](CCC[P+](c2ccccc2)(c2ccccc2)c2ccccc2)(c2ccccc2)c2ccccc2)cc1`, the TGI in the assay on EKVX NSCLC was over 100 µM; in the assay with HCC-2998 colon, over 100 µM; with HL-60(TB) leukemia, 36.9 µM and 6.75 µM; in the assay with IGROV1 ovarian, over 100 µM; in the assay on MDA-MB-231 breast, over 100 µM; with NCI/ADR-RES ovarian it was over 100 µM. Moreover, the TGI with OVCAR-3 ovarian was 83.7 µM and 35.5 µM; with OVCAR-5 ovarian it was over 100 µM; with SF-539 CNS, over 100 µM; in the assay on SK-MEL-2 melanoma, 40 µM. Besides, the GI50 in the assay on HL-60(TB) leukemia was 2270 nM; in the assay on IGROV1 ovarian, 14000 nM; with MDA-MB-231 breast, 23000 nM; in the assay on NCI/ADR-RES ovarian, over 100000 nM; in the assay with OVCAR-3 ovarian it was 4410 nM; with OVCAR-5 ovarian, 34000 nM. In addition, the GI50 in the assay on SF-539 CNS is 15100 nM; in the assay on SK-MEL-2 melanoma it was 8440 nM.
For the molecule `COc1cc(/C=N/O)nc(-c2ccccn2)c1`, the GI50 in the assay on EKVX NSCLC was 0.342 µM; in the assay with HCC-2998 colon, 341 nM; with HL-60(TB) leukemia it was 271 nM; in the assay on IGROV1 ovarian, 349 nM; in the assay on MDA-MB-231 breast, 541 nM; in the assay on NCI/ADR-RES ovarian, 294 nM. Moreover, the GI50 was 324 nM in the assay on OVCAR-3 ovarian, 637 nM with OVCAR-5 ovarian, 386 nM in the assay on SF-539 CNS and 1860 nM in the assay on SK-MEL-2 melanoma. Moreover, the TGI is over 100 µM in the assay with EKVX NSCLC; over 100 µM in the assay with HCC-2998 colon; 2.81 µM in the assay on HL-60(TB) leukemia; 24.1 µM with IGROV1 ovarian; over 100 µM with MDA-MB-231 breast; 10.9 µM with NCI/ADR-RES ovarian. The TGI was over 100 µM in the assay with OVCAR-3 ovarian, over 100 µM with OVCAR-5 ovarian, 10.4 µM in the assay on SF-539 CNS and over 100 µM with SK-MEL-2 melanoma.
Turning to `C=CC1=C(C)C(Cc2[nH]c(/C=c3\[nH]/c(=C/C4=NC(=O)C(C)/C4=C\C)c(C)c3CCC(=O)O)c(CCC(=O)OC)c2C)NC1=O` (stereo not drawn), the GI50 with EKVX NSCLC was 47.7 µM; with HCC-2998 colon it was 26700 nM; with HL-60(TB) leukemia, 39800 nM; with IGROV1 ovarian it was 18800 nM; in the assay on MDA-MB-231 breast, 25400 nM; in the assay on NCI/ADR-RES ovarian, 48800 nM. Besides, the GI50 in the assay on OVCAR-3 ovarian is 20100 nM; with OVCAR-5 ovarian it was 37600 nM; in the assay on SF-539 CNS it was 25100 nM; in the assay on SK-MEL-2 melanoma, 20100 nM. For the same molecule, the TGI is over 100 µM with EKVX NSCLC; 67.1 µM in the assay on HCC-2998 colon; over 100 µM with HL-60(TB) leukemia; 42.4 µM with IGROV1 ovarian; 58.9 µM in the assay on MDA-MB-231 breast; over 100 µM in the assay with NCI/ADR-RES ovarian. Further, the TGI with OVCAR-3 ovarian is 39.4 µM; in the assay with OVCAR-5 ovarian it was over 100 µM; in the assay with SF-539 CNS, 54.4 µM; in the assay with SK-MEL-2 melanoma, 39.4 µM.
With `C#CCOc1cccc(Nc2ncnc3c2ncn3C2CCN(C(=O)CCl)C2)c1` (stereo not drawn), the GI50 was 26.1 µM with EKVX NSCLC; 18200 nM in the assay with HCC-2998 colon; 19400 nM in the assay with HL-60(TB) leukemia; 16400 nM in the assay with IGROV1 ovarian; 18600 nM with MDA-MB-231 breast; 41300 nM in the assay with NCI/ADR-RES ovarian. The GI50 in the assay with OVCAR-3 ovarian is 17200 nM; in the assay with OVCAR-5 ovarian, 16800 nM; in the assay on SF-539 CNS, 17700 nM; in the assay on SK-MEL-2 melanoma it was 25700 nM. Further, the TGI with EKVX NSCLC is 74.2 µM; with HCC-2998 colon it was 37.3 µM; with HL-60(TB) leukemia it was 41.8 µM; with IGROV1 ovarian, 36.7 µM; in the assay with MDA-MB-231 breast, 35.9 µM; in the assay with NCI/ADR-RES ovarian it was over 100 µM. The TGI with OVCAR-3 ovarian came to 31.4 µM; in the assay on OVCAR-5 ovarian, 31.6 µM; with SF-539 CNS it was 32.4 µM; with SK-MEL-2 melanoma, 94.9 µM.
Turning to `COc1cc(C(=O)/C=C/c2c(-c3cccs3)nc3ccccn23)cc(OC)c1OC`, the GI50 in the assay with EKVX NSCLC is 3.12 µM; in the assay with HCC-2998 colon, 1960 nM; in the assay with HL-60(TB) leukemia, 2010 nM; in the assay on IGROV1 ovarian, 1890 nM; in the assay on MDA-MB-231 breast, 3080 nM; with NCI/ADR-RES ovarian, 1890 nM. The GI50 in the assay on OVCAR-3 ovarian was 2440 nM; in the assay on OVCAR-5 ovarian, 2640 nM; in the assay with SF-539 CNS, 1870 nM; in the assay on SK-MEL-2 melanoma it was 2270 nM. Also, the TGI with EKVX NSCLC was over 100 µM; in the assay on HCC-2998 colon, 3.37 µM; in the assay on HL-60(TB) leukemia, 5.01 µM; in the assay with IGROV1 ovarian it was 3.73 µM; in the assay with MDA-MB-231 breast, 26.2 µM; in the assay with NCI/ADR-RES ovarian it was 6.92 µM. Moreover, the TGI in the assay with OVCAR-3 ovarian was 5.36 µM; in the assay on OVCAR-5 ovarian, 5.82 µM; in the assay with SF-539 CNS, 4.5 µM; in the assay with SK-MEL-2 melanoma, 4.35 µM.
As for `CN(C)CCN1C(=O)c2cccc3c(-c4ccc5ncn(C6CCCCC6)c5c4)ccc(c23)C1=O`, the GI50 with EKVX NSCLC is 2.05 µM; in the assay with HCC-2998 colon it was 1820 nM; in the assay on HL-60(TB) leukemia it was 2180 nM; in the assay with IGROV1 ovarian it was 1120 nM; in the assay with MDA-MB-231 breast it was 2180 nM; in the assay with NCI/ADR-RES ovarian it was 1140 nM. Also, the GI50 in the assay with OVCAR-3 ovarian was 2280 nM; with OVCAR-5 ovarian, 2990 nM; in the assay with SF-539 CNS, 2190 nM; with SK-MEL-2 melanoma, 2190 nM. The TGI with EKVX NSCLC stood at 7.73 µM; with HCC-2998 colon, 4.3 µM; with HL-60(TB) leukemia, 10.5 µM; in the assay with IGROV1 ovarian it was 5.86 µM; with MDA-MB-231 breast, 9.78 µM; in the assay on NCI/ADR-RES ovarian, 13.4 µM. For the same molecule, the TGI in the assay with OVCAR-3 ovarian was 8.78 µM; with OVCAR-5 ovarian it was 20.1 µM; in the assay with SF-539 CNS, 9.03 µM; in the assay on SK-MEL-2 melanoma, 7.32 µM.
As to `CC(C)(C)n1cc(-c2ccnc(NCCCNS(=O)(=O)c3ccc(Cl)cc3)c2)c(-c2cccc(O)c2)n1`, the GI50 in the assay with EKVX NSCLC is 2.04 µM; in the assay with HCC-2998 colon, 1760 nM; with HL-60(TB) leukemia it was 2510 nM; in the assay with IGROV1 ovarian it was 1880 nM; with MDA-MB-231 breast, 1870 nM; with NCI/ADR-RES ovarian it was 1920 nM. Moreover, the GI50 is 1890 nM in the assay on OVCAR-3 ovarian, 1570 nM in the assay on OVCAR-5 ovarian, 1650 nM with SF-539 CNS and 1920 nM in the assay with SK-MEL-2 melanoma. The TGI was found to be 5.36 µM in the assay on EKVX NSCLC; 3.24 µM in the assay with HCC-2998 colon; 6.37 µM in the assay on HL-60(TB) leukemia; 4.39 µM in the assay on IGROV1 ovarian; 3.87 µM in the assay on MDA-MB-231 breast; 4.62 µM in the assay on NCI/ADR-RES ovarian. Besides, the TGI with OVCAR-3 ovarian stood at 3.72 µM; in the assay with OVCAR-5 ovarian, 3.19 µM; in the assay with SF-539 CNS, 3.14 µM; in the assay on SK-MEL-2 melanoma it was 3.89 µM.
As to `c1cc(-c2cnn3nc(N4CCOCC4)ccc23)nc(NC2CC2)n1`, the GI50 was 10.5 µM with EKVX NSCLC; 8640 nM in the assay on HCC-2998 colon; 7500 nM in the assay on HL-60(TB) leukemia; 10300 nM in the assay with IGROV1 ovarian; 10200 nM in the assay on MDA-MB-231 breast; 8250 nM in the assay on NCI/ADR-RES ovarian. For the same molecule, the GI50 is 8170 nM in the assay with OVCAR-3 ovarian, 6640 nM in the assay with OVCAR-5 ovarian, 6110 nM in the assay on SF-539 CNS and 7820 nM with SK-MEL-2 melanoma. In addition, the TGI is over 25 µM with EKVX NSCLC; over 25 µM in the assay on HCC-2998 colon; 18.9 µM in the assay with HL-60(TB) leukemia; over 25 µM in the assay with IGROV1 ovarian; over 25 µM in the assay on MDA-MB-231 breast; over 25 µM with NCI/ADR-RES ovarian. The TGI in the assay on OVCAR-3 ovarian was over 25 µM; with OVCAR-5 ovarian, over 22.4 µM; with SF-539 CNS, 20.4 µM; with SK-MEL-2 melanoma it was 21.6 µM.
As for `CCN1CCN(c2cc(C)nc(NCc3cc(Nc4ccnc5cc(Cl)ccc45)ccc3F)n2)CC1`, the GI50 with EKVX NSCLC is 5.45 µM; with HCC-2998 colon, 2590 nM; in the assay with HL-60(TB) leukemia, 2180 nM; with IGROV1 ovarian, 3310 nM; in the assay on MDA-MB-231 breast, 2020 nM; in the assay on NCI/ADR-RES ovarian, 5030 nM. Further, the GI50 in the assay with OVCAR-3 ovarian is 2940 nM; in the assay on OVCAR-5 ovarian it was 1670 nM; in the assay with SF-539 CNS, 1720 nM; in the assay on SK-MEL-2 melanoma it was 2530 nM. Also, the TGI in the assay with EKVX NSCLC is over 100 µM; with HCC-2998 colon, 31.3 µM; in the assay on HL-60(TB) leukemia it was 22.1 µM; with IGROV1 ovarian, 34.1 µM; in the assay with MDA-MB-231 breast it was 5.99 µM; in the assay on NCI/ADR-RES ovarian it was over 100 µM. Moreover, the TGI in the assay with OVCAR-3 ovarian worked out at 11.8 µM; in the assay with OVCAR-5 ovarian it was 17.7 µM; in the assay with SF-539 CNS it was 3.42 µM; in the assay with SK-MEL-2 melanoma, 6.52 µM.
`O=C(Nn1c2c(sc1=NC1CC1)C(=O)c1ccccc1C2=O)c1cc2ccc1CCc1ccc(cc1)CC2`: the GI50 in the assay on EKVX NSCLC is 1.87 µM; in the assay on HCC-2998 colon, 2340 nM; in the assay with HL-60(TB) leukemia it was 2180 nM; with IGROV1 ovarian, 1160 nM; in the assay on MDA-MB-231 breast, 1370 nM; in the assay on NCI/ADR-RES ovarian, 1930 nM. Moreover, the GI50 in the assay with OVCAR-3 ovarian is 1530 nM; with OVCAR-5 ovarian, 1830 nM; in the assay on SF-539 CNS it was 1670 nM; with SK-MEL-2 melanoma it was 2470 nM. In addition, the TGI turned out to be 12.5 µM with EKVX NSCLC; 6.67 µM in the assay on HCC-2998 colon; 6.26 µM with HL-60(TB) leukemia; 4.74 µM in the assay on IGROV1 ovarian; 9.82 µM in the assay on MDA-MB-231 breast; 6.77 µM with NCI/ADR-RES ovarian. The TGI in the assay on OVCAR-3 ovarian was 4.42 µM; in the assay on OVCAR-5 ovarian, 3.53 µM; in the assay on SF-539 CNS, 3.06 µM; in the assay with SK-MEL-2 melanoma it was 7.25 µM.

For the origin of these results see PubChem BioAssay (NCI).
